For one data set, the system named is FXR. Particulars: cited from earlier work.
A further data set concerns the target T1, TGR5 (Homo sapiens, UniProt Q8TDU6).
T1 construct: host or cells: CHO cells
T1 sequence (Q8TDU6 1-330): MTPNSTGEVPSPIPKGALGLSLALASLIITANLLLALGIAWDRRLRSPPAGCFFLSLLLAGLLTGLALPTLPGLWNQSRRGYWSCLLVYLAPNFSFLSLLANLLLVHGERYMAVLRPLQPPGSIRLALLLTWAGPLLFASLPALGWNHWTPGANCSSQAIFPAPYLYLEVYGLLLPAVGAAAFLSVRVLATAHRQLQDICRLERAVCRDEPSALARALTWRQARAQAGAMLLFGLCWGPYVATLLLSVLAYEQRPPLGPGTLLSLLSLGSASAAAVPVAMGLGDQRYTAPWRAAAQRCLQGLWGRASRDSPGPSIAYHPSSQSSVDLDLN
Particulars: cited from earlier work.

The target in another data set is T2, RXR alpha (Homo sapiens, UniProt P19793).
T2 construct: Eurofine Cerep / Eurofine Panlabs Discovery Services
Description: Selectivity, binding assay. An excerpt:
(§1) Compound 20p was screened against a broad panel of NRs and GPCRs to determine its agonist activity in vitro. […]
(§2) The selectivity tests of compound 20p were investigated by Eurofine Cerep (86600, Celle-Levescault, France) and Eurofine Panlabs Discovery Services (No. 25, Wugong, 6th Road, Wugu District, New Taipai City, Taiwan). Compound binding was caluculated as a % inhibition of the binding of radioactively labeled ligand specific for each target. Cellular agonist effect wa calculated as a % of control response to a known reference agonist for each target and cellular antagonist effect as caluculated as a % inhibition of control reference agonist response for each target at 30 µM of compound 20p.
(§3) 12.3%; CAR -2.5%, PPAR alpha 0.0%; PPAR delta -3.6%; PPAR gamma -1.0%; PXR 4.5%; ER alpha -16.6%; ER beta 17% at 30 µM.

In a further data set the target is T3, ER beta (Homo sapiens, UniProt Q92731).
T3 construct: Eurofine Cerep / Eurofine Panlabs Discovery Services
Put plainly: Selectivity, binding assay.
Source text: as §1, §2, §3

For another data set, the target named is T4, ER alpha (Homo sapiens, UniProt P03372).
T4 construct: Eurofine Cerep / Eurofine Panlabs Discovery Services
Description: Selectivity, binding assay.
Source text: as §1, §2, §3

The target in a further data set is T5, PPAR alpha (Homo sapiens, UniProt Q07869).
T5 construct: Eurofine Cerep / Eurofine Panlabs Discovery Services
Description: Selectivity, NR functional assay. Format: cell-based.
Source text: as §1, §2, §3

For another data set, the target named is T6, PPAR delta (Homo sapiens, UniProt Q03181).
T6 construct: Eurofine Cerep / Eurofine Panlabs Discovery Services
Put plainly: Selectivity, NR functional assay. The data set is classed as cell-based.
Source text: as §1, §2, §3

In the next data set the target is T7, LXR beta (Homo sapiens, UniProt P55055).
T7 construct: Eurofine Cerep / Eurofine Panlabs Discovery Services
Description: Selectivity, NR functional assay. Format: cell-based.
Source text: as §1, §2, §3

Another data set has as its target T8, PPAR gamma (Homo sapiens, UniProt P37231).
T8 construct: Eurofine Cerep / Eurofine Panlabs Discovery Services
Description: Selectivity, NR functional assay. Format: cell-based.
Source text: as §1, §2, §3

In a further data set the target is T9, PXR (Homo sapiens, UniProt O75469).
T9 construct: Eurofine Cerep / Eurofine Panlabs Discovery Services
Description: Selectivity, NR functional assay. The data set is classed as cell-based.
Source text: as §1, §2, §3

A further data set has as its target T10, LXR alpha (Homo sapiens, UniProt Q13133).
T10 construct: Eurofine Cerep / Eurofine Panlabs Discovery Services
Description: Selectivity, NR functional assay. The data set is classed as cell-based.
Source text: as §1, §2, §3

Another data set deals with T11, CAR (Homo sapiens, UniProt Q14994).
T11 construct: Eurofine Cerep / Eurofine Panlabs Discovery Services
Description: Selectivity, NR functional assay. The data set is classed as cell-based.
Source text: as §1, §2, §3

Another data set concerns GPCRs and NRs. Description: Broad panel of NRs and GPCRs. To be noted: in vitro agonist activity.
Source text: as §1, §2, §3

The next data set addresses T12, GPR40 (Homo sapiens, UniProt O14842).
T12 construct: Eurofine Cerep / Eurofine Panlabs Discovery Services
Description: Selectivity, cellular functional assay. Format: cell-based.
Source text: as §1, §2, §3

In a further data set the target is T13, GPR120 (Homo sapiens, UniProt Q5NUL3).
T13 construct: Eurofine Cerep / Eurofine Panlabs Discovery Services
Put plainly: Selectivity, cellular functional assay. The data set is classed as cell-based.
Source text: as §1, §2, §3

The next data set deals with T14, GPR119 (Homo sapiens, UniProt Q8TDV5).
T14 construct: Eurofine Cerep / Eurofine Panlabs Discovery Services
Put plainly: Selectivity, cellular functional assay. The data set is classed as cell-based.
Source text: as §1, §2, §3

The text below walks through data of paper PMC8080777, “Discovery, optimization, and evaluation of non-bile acid FXR/TGR5 dual agonists” (Scientific Reports, 2021).

Molecules are shown by their SMILES. Where only a bound is given, the exact number is not on record here.

The inhibition is the change of the read-out against control, counted positive when it falls. A word on the EC50: it is the concentration giving half of the maximal effect. Lower therefore signals greater potency.

T13 sequence (Q5NUL3 whole entry): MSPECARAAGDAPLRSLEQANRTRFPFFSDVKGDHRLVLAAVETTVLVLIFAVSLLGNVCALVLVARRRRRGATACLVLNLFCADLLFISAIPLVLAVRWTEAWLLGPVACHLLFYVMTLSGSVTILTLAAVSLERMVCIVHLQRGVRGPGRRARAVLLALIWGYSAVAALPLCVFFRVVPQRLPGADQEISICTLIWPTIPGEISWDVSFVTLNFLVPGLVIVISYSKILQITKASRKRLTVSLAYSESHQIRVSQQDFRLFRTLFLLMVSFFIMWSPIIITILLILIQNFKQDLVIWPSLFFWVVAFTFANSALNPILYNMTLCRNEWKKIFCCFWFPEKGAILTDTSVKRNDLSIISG
T7 sequence (P55055 whole entry): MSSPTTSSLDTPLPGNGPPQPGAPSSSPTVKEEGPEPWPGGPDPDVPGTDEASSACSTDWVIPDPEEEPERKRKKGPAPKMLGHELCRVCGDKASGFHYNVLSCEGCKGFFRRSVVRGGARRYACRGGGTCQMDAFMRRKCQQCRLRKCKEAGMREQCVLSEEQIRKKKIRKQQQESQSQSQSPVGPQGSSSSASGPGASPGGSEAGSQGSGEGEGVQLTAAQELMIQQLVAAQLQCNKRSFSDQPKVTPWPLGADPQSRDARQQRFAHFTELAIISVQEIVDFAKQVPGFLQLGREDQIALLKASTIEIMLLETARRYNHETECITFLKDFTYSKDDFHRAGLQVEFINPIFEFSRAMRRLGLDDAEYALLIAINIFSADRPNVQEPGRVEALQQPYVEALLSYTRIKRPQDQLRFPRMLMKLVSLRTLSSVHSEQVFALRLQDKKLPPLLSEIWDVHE
T4 sequence (P03372 whole entry): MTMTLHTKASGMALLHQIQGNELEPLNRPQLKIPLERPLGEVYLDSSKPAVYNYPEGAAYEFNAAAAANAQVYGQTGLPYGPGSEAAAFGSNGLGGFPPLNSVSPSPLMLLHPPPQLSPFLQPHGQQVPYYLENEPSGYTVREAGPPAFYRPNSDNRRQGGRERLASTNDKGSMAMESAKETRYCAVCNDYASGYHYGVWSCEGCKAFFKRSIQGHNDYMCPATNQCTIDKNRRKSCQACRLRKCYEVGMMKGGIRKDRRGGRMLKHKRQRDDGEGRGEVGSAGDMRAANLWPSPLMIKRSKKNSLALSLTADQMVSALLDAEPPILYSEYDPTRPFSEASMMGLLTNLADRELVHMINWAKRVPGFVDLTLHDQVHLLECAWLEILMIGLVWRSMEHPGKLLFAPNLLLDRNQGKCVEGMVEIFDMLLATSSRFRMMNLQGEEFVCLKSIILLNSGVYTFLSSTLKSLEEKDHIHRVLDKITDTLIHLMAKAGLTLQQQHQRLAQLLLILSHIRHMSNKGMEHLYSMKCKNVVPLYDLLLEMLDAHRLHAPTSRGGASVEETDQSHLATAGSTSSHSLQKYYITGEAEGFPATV
T10 sequence (Q13133 whole entry): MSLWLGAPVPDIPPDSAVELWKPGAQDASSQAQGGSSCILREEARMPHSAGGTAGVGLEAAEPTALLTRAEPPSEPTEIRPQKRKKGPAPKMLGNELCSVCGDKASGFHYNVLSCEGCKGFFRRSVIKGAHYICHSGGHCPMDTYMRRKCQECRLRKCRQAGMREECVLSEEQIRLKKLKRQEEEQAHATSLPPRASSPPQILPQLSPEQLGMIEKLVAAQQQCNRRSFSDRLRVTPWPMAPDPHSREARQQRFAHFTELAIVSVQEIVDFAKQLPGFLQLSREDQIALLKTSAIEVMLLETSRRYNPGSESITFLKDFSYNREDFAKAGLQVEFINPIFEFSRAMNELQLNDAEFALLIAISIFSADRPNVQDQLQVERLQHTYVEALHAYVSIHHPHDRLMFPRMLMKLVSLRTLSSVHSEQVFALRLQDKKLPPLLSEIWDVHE
T6 sequence (Q03181 whole entry): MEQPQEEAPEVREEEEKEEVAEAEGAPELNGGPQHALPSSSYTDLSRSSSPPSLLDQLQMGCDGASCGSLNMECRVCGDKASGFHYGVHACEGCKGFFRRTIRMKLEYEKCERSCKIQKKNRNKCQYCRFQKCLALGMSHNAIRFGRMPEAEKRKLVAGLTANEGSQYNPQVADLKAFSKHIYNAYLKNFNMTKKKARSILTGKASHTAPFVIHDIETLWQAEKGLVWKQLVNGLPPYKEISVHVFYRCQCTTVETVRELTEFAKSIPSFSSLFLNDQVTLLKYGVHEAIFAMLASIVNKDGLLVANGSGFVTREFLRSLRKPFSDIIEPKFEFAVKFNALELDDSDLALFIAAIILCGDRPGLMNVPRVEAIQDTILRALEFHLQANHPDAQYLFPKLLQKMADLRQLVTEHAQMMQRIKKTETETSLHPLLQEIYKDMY
T12 sequence (O14842 whole entry): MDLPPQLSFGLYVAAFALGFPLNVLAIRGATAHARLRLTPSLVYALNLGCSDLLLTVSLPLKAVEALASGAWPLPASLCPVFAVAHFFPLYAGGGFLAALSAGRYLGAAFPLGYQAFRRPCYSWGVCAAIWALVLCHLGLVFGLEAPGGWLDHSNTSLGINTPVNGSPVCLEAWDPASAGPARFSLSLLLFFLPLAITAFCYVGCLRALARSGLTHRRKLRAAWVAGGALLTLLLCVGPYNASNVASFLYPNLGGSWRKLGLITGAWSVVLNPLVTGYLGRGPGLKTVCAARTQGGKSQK
T11 sequence (Q14994 whole entry): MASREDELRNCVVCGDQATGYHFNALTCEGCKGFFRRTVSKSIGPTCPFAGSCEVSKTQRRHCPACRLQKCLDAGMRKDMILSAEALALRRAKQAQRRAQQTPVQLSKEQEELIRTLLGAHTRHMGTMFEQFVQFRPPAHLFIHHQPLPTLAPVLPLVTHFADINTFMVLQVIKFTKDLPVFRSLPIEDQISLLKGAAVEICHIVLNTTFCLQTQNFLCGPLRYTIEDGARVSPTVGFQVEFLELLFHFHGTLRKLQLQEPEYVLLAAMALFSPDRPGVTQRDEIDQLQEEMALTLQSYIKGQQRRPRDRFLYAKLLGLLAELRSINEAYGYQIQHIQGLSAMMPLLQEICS
T9 sequence (O75469 whole entry): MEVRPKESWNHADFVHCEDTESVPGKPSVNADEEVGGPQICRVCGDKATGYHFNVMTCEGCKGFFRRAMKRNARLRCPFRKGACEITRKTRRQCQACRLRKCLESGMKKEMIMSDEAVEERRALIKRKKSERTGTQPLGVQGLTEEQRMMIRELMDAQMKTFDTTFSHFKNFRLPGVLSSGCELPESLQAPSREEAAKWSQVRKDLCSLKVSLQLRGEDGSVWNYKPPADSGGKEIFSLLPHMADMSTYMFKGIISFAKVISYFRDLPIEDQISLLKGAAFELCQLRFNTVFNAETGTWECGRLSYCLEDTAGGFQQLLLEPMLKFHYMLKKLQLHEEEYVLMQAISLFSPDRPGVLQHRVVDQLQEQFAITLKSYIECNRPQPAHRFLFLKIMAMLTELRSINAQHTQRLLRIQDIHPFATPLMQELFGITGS
T8 sequence (P37231 whole entry): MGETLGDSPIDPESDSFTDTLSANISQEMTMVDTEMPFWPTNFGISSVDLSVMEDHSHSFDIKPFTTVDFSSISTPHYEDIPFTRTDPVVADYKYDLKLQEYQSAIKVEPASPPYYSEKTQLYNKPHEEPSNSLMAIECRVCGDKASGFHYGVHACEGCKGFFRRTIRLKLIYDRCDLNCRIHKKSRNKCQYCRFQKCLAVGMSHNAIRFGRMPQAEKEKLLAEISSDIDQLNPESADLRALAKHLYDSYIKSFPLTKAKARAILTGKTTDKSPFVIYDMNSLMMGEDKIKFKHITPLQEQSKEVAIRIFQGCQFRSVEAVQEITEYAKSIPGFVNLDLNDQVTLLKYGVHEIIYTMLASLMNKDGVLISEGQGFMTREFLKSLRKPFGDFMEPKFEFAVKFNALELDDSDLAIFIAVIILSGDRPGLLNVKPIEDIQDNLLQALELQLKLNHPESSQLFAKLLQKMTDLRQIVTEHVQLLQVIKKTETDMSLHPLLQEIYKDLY
T5 sequence (Q07869 whole entry): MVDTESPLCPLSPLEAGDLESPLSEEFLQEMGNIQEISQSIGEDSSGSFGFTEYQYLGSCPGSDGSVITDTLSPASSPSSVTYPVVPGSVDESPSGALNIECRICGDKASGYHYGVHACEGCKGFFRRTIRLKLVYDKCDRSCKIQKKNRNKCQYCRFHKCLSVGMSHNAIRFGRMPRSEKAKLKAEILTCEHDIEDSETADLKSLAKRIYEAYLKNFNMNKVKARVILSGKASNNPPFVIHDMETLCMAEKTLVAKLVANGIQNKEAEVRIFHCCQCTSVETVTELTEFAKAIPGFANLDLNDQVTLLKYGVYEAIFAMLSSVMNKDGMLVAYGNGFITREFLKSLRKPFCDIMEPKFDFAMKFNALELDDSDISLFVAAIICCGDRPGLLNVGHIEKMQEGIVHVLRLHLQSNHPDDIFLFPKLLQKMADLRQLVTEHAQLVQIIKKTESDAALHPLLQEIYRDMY
T2 sequence (P19793 whole entry): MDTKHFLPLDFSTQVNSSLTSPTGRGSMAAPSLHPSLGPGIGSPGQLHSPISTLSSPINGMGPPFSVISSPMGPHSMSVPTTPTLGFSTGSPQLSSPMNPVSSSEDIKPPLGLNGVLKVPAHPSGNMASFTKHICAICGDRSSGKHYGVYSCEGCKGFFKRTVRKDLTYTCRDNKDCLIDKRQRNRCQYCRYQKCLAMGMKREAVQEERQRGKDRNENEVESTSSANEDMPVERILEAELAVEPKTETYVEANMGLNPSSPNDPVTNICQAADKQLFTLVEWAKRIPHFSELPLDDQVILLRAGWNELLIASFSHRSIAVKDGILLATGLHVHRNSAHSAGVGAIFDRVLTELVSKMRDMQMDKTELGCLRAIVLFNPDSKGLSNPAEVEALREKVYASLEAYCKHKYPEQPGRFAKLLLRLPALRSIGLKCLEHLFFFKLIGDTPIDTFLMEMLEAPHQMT

Take `COC(=O)/C=C/c1cccc(N(Cc2ccc(-c3ccc(N(C)C)cc3)cc2)C(=O)C2CCCCC2)c1` [Compound 7, Fexaramine, reference compound]: the “Reported FXR activity (in words)” value in the data set on FXR is “specific and potent partial agonist against FXR”. Besides, the “Reported TGR5 activity (in words)” value on TGR5 was “no significant agonist activity against TGR5”.

In the case of `COc1cc(Cl)cc(N(CC23CCC(c4ccc(OC)c(C#N)c4)(CC2)CC3)C(=O)c2ccncc2C)c1` [Compound 20p], the inhibition at 30 µM on RXR alpha (30 µM, read-out: RXR alpha binding, % inhibition of the binding of radioactively labeled ligand) was -12.3%; at ER beta (30 µM, read-out: ER beta binding, % inhibition of the binding of radioactively labeled ligand), 17%; on ER alpha (30 µM, read-out: ER alpha binding, % inhibition of the binding of radioactively labeled ligand), -16.6%. Also, the concentration for a half-maximal effect (EC50) on RXR alpha (binding assay), at ER beta (binding assay), at ER alpha (binding assay), on PPAR alpha (NR functional assay), at PPAR delta (NR functional assay) and at LXR beta (NR functional assay) was above 30 µM in each case. The EC50 on PPAR gamma (NR functional assay), at PXR (NR functional assay), at LXR alpha (NR functional assay), on CAR (NR functional assay), on GPR40 (cellular functional assay) and at GPR120 (cellular functional assay) was above 30 µM throughout. For the same molecule, the EC50 at GPR119 (cellular functional assay) was above 30 µM. The activity at 30 µM on PPAR alpha (30 µM, read-out: PPAR alpha agonist effect, % of control response to reference agonist) is 0%; at PPAR delta (30 µM, read-out: PPAR delta agonist effect, % of control response to reference agonist), -3.6%; on LXR beta (30 µM, read-out: LXR beta agonist effect, % of control response to reference agonist) it was 3.7%; on PPAR gamma (30 µM, read-out: PPAR gamma agonist effect, % of control response to reference agonist), -1%; at PXR (30 µM, read-out: PXR agonist effect, % of control response to reference agonist) it was 4.5%; at LXR alpha (30 µM, read-out: LXR alpha agonist effect, % of control response to reference agonist), 0.2%. Also, the activity at 30 µM is -2.5% on CAR (30 µM, read-out: CAR agonist effect, % of control response to reference agonist); 5.9% on GPR40 (30 µM, read-out: GPR40 cellular agonist effect, % of control response to reference agonist); -5.2% at GPR120 (30 µM, read-out: GPR120 cellular agonist effect, % of control response to reference agonist); 1.8% on GPR119 (30 µM, read-out: GPR119 cellular agonist effect, % of control response to reference agonist). For the same molecule, in the data set on GPCRs and NRs, the “Off-target activity against GPCRs and NRs (in words)” value was “no significant off-target activity against GPCRs and NRs”.
